Holding throughout (assay): growth of human tumour cells (NCI), 48 h
Assay [1] has as its system NCI-H522 lung.
The subject of assay [2] is SNB-19 CNS.
Assay [3] has as its system COLO 205 colon.
In assay [4] the test system is NCI-H460 lung.
Assay [5] relates to LOX IMVI melanoma.
For assay [6], the system named is MCF7 breast.
In assay [7] the test system is OVCAR-4 ovarian.
Assay [8] has as its system RPMI-8226 leukemia.

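A five-concentration, 48-hour dose response in 96-well plates underlies each endpoint, interpolated linearly between surrounding concentrations. Abbreviation: GI50, concentration required for 50% inhibition of growth. Definition used: TGI = concentration required for complete inhibition of growth.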

For `CN1CCN(c2ccc(-c3cccc(CN4CCOCC4)c3)cc2NC(=O)c2c[nH]c(=O)cc2C(F)(F)F)CC1`, the GI50 in assay [1] was 16.7 µM; in assay [2], 94.7 µM; in assay [3] it was 17.8 µM; in assay [4], 45.8 µM; in assay [5], 25.1 µM; in assay [6] it was 33.1 µM. The GI50 in assay [7] was 55.9 µM; in assay [8], 38.2 µM. The TGI in assay [1] was 39.5 µM; in assay [2], greater than 100 µM; in assay [3] it was greater than 100 µM; in assay [4] it was greater than 100 µM; in assay [5] it was greater than 100 µM; in assay [6], greater than 100 µM. Further, the TGI in assay [7] and in assay [8] was greater than 100 µM each time.

Regarding `O=S(=O)(NCCNc1cc(-c2cn(-c3ccccc3)nc2-c2cccc(O)c2)ccn1)c1ccc(Br)cc1`, the GI50 in assay [1] is 2.02 µM; in assay [2] it was 2.89 µM; in assay [3], 1.86 µM; in assay [4], 2.39 µM; in assay [5] it was 1.71 µM; in assay [6], 2.33 µM. The GI50 in assay [7] is 2.32 µM; in assay [8] it was 2.21 µM. Moreover, the TGI in assay [1] amounted to 4.69 µM; in assay [2] it was 11.1 µM; in assay [3] it was 3.81 µM; in assay [4], 5.76 µM; in assay [5], 3.23 µM; in assay [6] it was 6.91 µM. Further, the TGI was 13.7 µM in assay [7] and 5.73 µM in assay [8].

Consider `C[C@@H]1OC(=O)NN=C1c1ccc(-c2ccc(F)cc2)c(C(F)(F)F)c1`, for which the GI50 is 2.72 µM in assay [1]; 11 µM in assay [2]; 11.8 µM in assay [3]; 11.7 µM in assay [4]; 4.78 µM in assay [5]; 10.1 µM in assay [6]. Further, the GI50 in assay [7] is 6.36 µM; in assay [8], 5.78 µM. For the same compound, the TGI in assay [1] amounted to 14.5 µM; in assay [2], 23.3 µM; in assay [3] it was 28 µM; in assay [4] it was 25.6 µM; in assay [5] it was 18.8 µM; in assay [6], 25 µM. The TGI is 20.6 µM in assay [7] and 51.2 µM in assay [8].

Turning to `O=C(Nc1ccc(-n2ccc3c(NC(=O)c4ccccc4)nccc32)cc1)c1ccc(N2CCOCC2)c(C(F)(F)F)c1`, the GI50 is 0.363 µM in assay [1]; 0.481 µM in assay [2]; 0.364 µM in assay [3]; 0.0129 µM in assay [4]; 0.0334 µM in assay [5]; 0.0734 µM in assay [6]. For the same compound, the GI50 in assay [7] is 7.09 µM; in assay [8], 0.0912 µM. For the same compound, the TGI was 18.2 µM in assay [1]; greater than 81 µM in assay [2]; 32.4 µM in assay [3]; 1.35 µM in assay [4]; 7.06 µM in assay [5]; 25 µM in assay [6]. Besides, the TGI in assay [7] is greater than 60.8 µM; in assay [8], greater than 100 µM.

For the compound `COc1ccc(C(=O)c2cc(C)c(OC)c(C)c2)c(OC)c1N(C(=O)CCl)C(=O)CCl`, the GI50 in assay [1] was 0.0349 µM; in assay [2] it was 0.05 µM; in assay [3], 0.104 µM; in assay [4] it was 0.0386 µM; in assay [5] it was 0.0731 µM; in assay [6], 0.0657 µM. The GI50 is 0.719 µM in assay [7] and 0.118 µM in assay [8]. In addition, the TGI in assay [1] is 0.906 µM; in assay [2], greater than 71.1 µM; in assay [3], 17.6 µM; in assay [4], 1.3 µM; in assay [5], 2.66 µM; in assay [6], greater than 38.6 µM. In addition, the TGI was greater than 67 µM in assay [7] and 15.1 µM in assay [8].

Regarding `Cc1ccc2c(c1)-c1oc(=O)c(-c3cc4ccccc4oc3=O)cc1C(O)O2` (stereo unspecified), the GI50 in assay [1] was 19.4 µM; in assay [2] it was 22.6 µM; in assay [3] it was 18.7 µM; in assay [4], 22.3 µM; in assay [5], 17.6 µM; in assay [6], 31.7 µM. The GI50 in assay [7] is 36.3 µM; in assay [8], 35.1 µM. Moreover, the TGI in assay [1] was 48.1 µM; in assay [2] it was 71 µM; in assay [3] it was 41.7 µM; in assay [4], greater than 100 µM; in assay [5], 31.4 µM; in assay [6] it was greater than 100 µM. In addition, the TGI in assay [7] and in assay [8] was greater than 100 µM each time.

Regarding `N#CC(C(=O)O)C(c1c(Cl)cccc1Cl)C(C#N)C(=O)O` (stereo unspecified), the TGI in assay [1], in assay [2], in assay [3], in assay [4], in assay [5] and in assay [6] was greater than 100 µM in each case. Moreover, the TGI in assay [7] and in assay [8] was greater than 100 µM each time.

Turning to `CC1(C)OC2COC(c3[nH]nc4c(=O)[nH]c(=O)[nH]c34)C2O1` (stereo unspecified), the TGI in assay [1], in assay [2], in assay [3], in assay [4], in assay [5] and in assay [6] was greater than 100 µM throughout. In addition, the TGI in assay [7] and in assay [8] was greater than 100 µM each time.

As for `NC(Cc1c[nH]c2cc(F)ccc12)C(=O)O` (stereo unspecified), the GI50 in assay [1] was 773 µM; in assay [2], 1440 µM; in assay [3] it was 1120 µM; in assay [4], 768 µM; in assay [5] it was 820 µM; in assay [6] it was 1290 µM. The GI50 in assay [7] and in assay [8] was greater than 2500 µM throughout. The TGI in assay [1] was 2280 µM; in assay [2], greater than 2500 µM; in assay [3], greater than 2500 µM; in assay [4], greater than 2500 µM; in assay [5] it was greater than 2500 µM; in assay [6], greater than 2500 µM. For the same compound, the TGI in assay [7] and in assay [8] was greater than 2500 µM in each case.

Turning to `S=C1SCN(C2CCCCCCCCCCC2)CN1C1CCCCCCCCCCC1`, the TGI in assay [1], in assay [2], in assay [3], in assay [4], in assay [5] and in assay [6] was greater than 100 µM each time. The TGI in assay [7] and in assay [8] was greater than 100 µM throughout.

These data come from PubChem BioAssay (NCI).
